Assays:
TNF = test: PBMC assay: TNF cytokine levels in LPS-stimulated human PBMCs (MSD); type: cell-based; conditions: 100 ng/ml LPS for 6 hrs, TNF in supernatant via MSD
Procedure: (§1) Peripheral venous blood was collected from healthy individuals and human peripheral blood mononuclear cells (PBMCs) were isolated from blood by Ficoll-Histopaque (Sigma-Aldrich, A0561) density gradient centrifugation. After isolation, PBMCs were stored in liquid nitrogen for later use. Upon thawing, PBMC cell viability was determined in growth medium (RPMI media supplemented with 10% fetal bovine serum, 1% Pen-Strep and 1% L-glutamine). Compounds were spotted in a 1:3 serial dilution in DMSO and diluted to the final concentration in 30 μl medium in 96 well plates (Falcon, 353072). PBMCs were added at a density of 7.5×10^4 cells per well and incubated for 30 min in a 5% CO2 incubator at 37° C. LPS stimulation was performed by addition of 100 ng/ml LPS (final concentration, Invivogen, tlrl-smlps) for 6 hrs followed by collection of cellular supernatant and the analysis of IL-1β (μM) and TNF cytokines levels (μM) via MSD technology according to manufacturers' guidelines (MSD, K151A0H).
The IC50 values (for IL-1β) and EC50 values (TNF) were obtained on compounds of the invention/examples, and are depicted in the following table: […]

NLRP3 inflammasome = test: PBMC assay: IL-1β in LPS-stimulated human PBMCs (MSD); type: cell-based; conditions: human PBMCs, 100 ng/ml LPS for 6 hrs, IL-1β in supernatant via MSD, read-out: IL1β IC50
Procedure: The activity of a compound according to the present invention can be assessed by in vitro methods.
as §1, with “Compounds were spotted in a 1:3 serial dilution in DMSO and diluted to the final concentration in 30 μl medium in 96 well plates (Falcon, 353072).” left out

Row | Compound | EC50 (TNF) [µM] | IC50 (NLRP3 inflammasome) [µM]
1 | CC(C)c1nn(CC(=O)Nc2ccncn2)c(=O)c2cc(I)nn12 [Final Cpd 2, 2-(2-iodo-7-isopropyl-4-oxo-pyrazolo[1,5-d][1,2,4]triazinyl)-N-pyrimidin-4-yl-acetamide] | > 10 | < 0.12
2 | CC(C)c1nn(CC(=O)Nc2ccc3nncn3c2)c(=O)c2c(F)c(C3CC3)nn12 [Final Cpd 44] | > 10 | 0.62
3 | CC(C)c1nn(CC(=O)Nc2ccc3cnnn3c2)c(=O)c2cc(C3CC3)nn12 [Final Cpd 128] | > 10 | 2.55
4 | CCc1nn(CC(=O)Nc2ccncn2)c(=O)c2cc(I)nn12 [Final Cpd 4, 2-(7-ethyl-2-iodo-4-oxo-pyrazolo[1,5-d][1,2,4]triazin-5-yl)-N-pyrimidin-4-yl-acetamide] | > 10 | 0.29
5 | CCc1cc2c(=O)n(CC(=O)Nc3ccncn3)nc(C(C)C)n2n1 [Final Cpd 1, 2-(2-ethyl-7-isopropyl-4-oxo-pyrazolo[1,5-d][1,2,4]triazin-5-yl)-N-pyrimidin-4-yl-acetamide] | > 10 | 0.34
6 | CC(C)c1nn(CC(=O)Nc2cncc(Cl)c2)c(=O)c2cc(C3CC3)nn12 [Final Cpd 117] | > 10 | 1.41
7 | Cc1cnccc1NC(=O)Cn1nc(C(C)C)n2nc(C3CC3)cc2c1=O [Final Cpd 134] | > 10 | 0.23
8 | CNc1cc2c(=O)n(CC(=O)Nc3ccncn3)nc(C(C)C)n2n1 [Final Cpd 18, 2-[7-isopropyl-2-(methylamino)-4-oxo-pyrazolo[1,5-d] [1,2,4]triazin-5-yl]—N-pyrimidin-4-yl-acetamide] | > 10 | 0.16
9 | CC(C)c1nn(CC(=O)Nc2cccnc2)c(=O)c2cc(C3CC3)nn12 [Final Cpd 119] | > 10 | 0.52
10 | CC(C)c1cc2c(=O)n(CC(=O)Nc3ccnnc3)nc(N(C)C)n2n1 [Final Cpd 149] | > 10 | 0.78
11 | CC(C)c1nn(CC(=O)N[C@H]2C[C@@](C)(O)C2)c(=O)c2cc(I)nn12 [Final Cpd 24] | > 10 | 0.11
12 | Cc1ncc(NC(=O)Cn2nc(C(C)C)n3nc(C4CC4)cc3c2=O)cn1 [Final Cpd 131] | > 10 | 3.57
13 | CCc1cc2c(=O)n(CC(=O)Nc3ccc4nncn4c3)nc(C(C)C)n2n1 [Final Cpd 146] | > 10 | 0.21
14 | Cc1nn(CC(=O)N[C@]2(Cc3ccccc3)C[C@H](O)C2)c(=O)c2cc(C3CC3)nn12 [Final Cpd 50] | > 10 | > 10
15 | CC(C)c1nn(CC(=O)Nc2nccc(C(F)(F)F)n2)c(=O)c2cc(C3CC3)nn12 [Final Cpd 98] | > 10 | > 10
16 | CC(C)c1nn(CC(=O)Nc2ccc3nncn3c2)c(=O)c2cc(C(O)C(F)(F)F)nn12 (stereo not shown) [Final Cpd 157] | > 10 | > 10
17 | CC(C)c1nn(CC(=O)Nc2ccc3nc(C(F)F)cn3c2)c(=O)c2cc(C3CC3)nn12 [Final Cpd 105] | > 10 | 0.18
18 | CC(C)c1nn(CC(=O)Nc2ccc3nncn3c2)c(=O)c2c(N)c(C3CCC3)nn12 [Final Cpd 182] | > 10 | 0.1
19 | CC(C)c1nn(CC(=O)Nc2ccn3ccnc3c2)c(=O)c2cc(C3CC3)nn12 [Final Cpd 90] | > 10 | 0.39
20 | CC(C)c1nn(CC(=O)Nc2ccc3nncn3c2)c(=O)c2cc(C3CC3)nn12 [Final Cpd 80] | > 10 | 0.08
21 | CC(C)c1nn(CC(=O)N[C@H]2CCC(=O)N(C)C2)c(=O)c2cc(C3CC3)nn12 [Final Cpd 31] | > 10 | 0.69
22 | Cc1nn(CC(=O)NC23CCCC2C2CCCC23)c(=O)c2cc(C3CC3)nn12 (stereo not shown) [Final Cpd 67] | > 10 | > 10
23 | COc1nn(CC(=O)N[C@H]2C[C@@](C)(O)C2)c(=O)c2cc(C3CC3)nn12 [Final Cpd 139] | > 10 | 6.56
24 | CC(C)c1nn(CC(=O)Nc2cncc(F)c2)c(=O)c2cc(C3CC3)nn12 [Final Cpd 112] | > 10 | 0.88
25 | Cc1nn(CC(=O)NC2(c3ccc(Cl)cc3Cl)CCC2)c(=O)c2cc(C3CC3)nn12 [Final Cpd 63] | > 10 | 7.89

Row | Compound | EC50 (TNF) [µM] | IC50 (NLRP3 inflammasome) [µM]
26 | CC(C)c1nn(CC(=O)Nc2ccncn2)c(=O)c2cc(C(C)O)nn12 (stereo not shown) [Final Cpd 185, 2-(2-(1-hydroxyethyl)-7-sopropyl-4-oxopyrazolo[1,5-d][1,2,4]triazin-5(4H)-yl)-N-(pyrimidin-4-yl)acetamide] | > 10 | 4.11
27 | CC(C)c1nn(CC(=O)Nc2ccc3nncn3n2)c(=O)c2cc(C(C)(F)F)nn12 [Final Cpd 176] | > 10 | 0.082
28 | CCc1cc2c(=O)n(CC(=O)N[C@H]3C[C@@](C)(O)C3)nc(C(C)C)n2n1 [Final Cpd 140] | > 10 | 0.21
29 | CCCc1cc2c(=O)n(CC(=O)Nc3ccnnc3)nc(C(C)C)n2n1 [Final Cpd 145] | > 10 | 0.51
30 | Cc1nn(CC(=O)NC2(C)CCC2)c(=O)c2cc(C3CC3)nn12 [Final Cpd 62] | > 10 | 8.53
31 | CC(C)c1nn(CC(=O)Nc2cccnc2Cl)c(=O)c2cc(C3CC3)nn12 [Final Cpd 109] | > 10 | 1.08
32 | CC(C)c1nn(CC(=O)N[C@H]2C[C@@](C)(O)C2)c(=O)c2cc(C(C)(C)C)nn12 [Final Cpd 71] | > 10 | 0.54
33 | CC(C)c1nn(CC(=O)N[C@@H]2CCCN(C3CCC3)C2)c(=O)c2cc(C3CC3)nn12 [Final Cpd 9] | > 10 | < 0.12
34 | Cc1nn(CC(=O)NC2CN([C@H](c3ccccc3)c3cncnc3)C2)c(=O)c2cc(C3CC3)nn12 [Final Cpd 60] | > 10 | > 10
35 | CC(=O)c1cc2c(=O)n(CC(=O)Nc3ccncn3)nc(C(C)C)n2n1 [Final Cpd 183, 2-(2-acetyl-7-isopropyl-4-oxopyrazolo[1,5-d][1,2,4]triazin-5(4H)-yl)-N-(pyrimidin-4-yl)acetamide] | > 10 | 5.04
36 | Cc1nnc2n1CC(NC(=O)Cn1nc(C(C)C)n3nc(C4CC4)cc3c1=O)CC2 (stereo not shown) [Final Cpd 84] | > 10 | 0.63
37 | CC(C)c1nn(CC(=O)Nc2ccncn2)c(=O)c2cc(C(C)(C)C)nn12 [Final Cpd 70] | > 10 | 0.62
38 | CC(C)c1nn(CC(=O)Nc2cc(C#N)c3nncn3c2)c(=O)c2cc(C3CC3)nn12 [Final Cpd 193, N-(8-cyano-[1,2,4]triazolo[4,3-a]pyridin-6-yl)-2-(2-cyclopropyl-7-isopropyl-4-oxopyrazolo[1,5-d][1,2,4]triazin-5(4H)-yl)acetamide] | > 10 | 0.98
39 | CCNc1cc2c(=O)n(CC(=O)N[C@H]3C[C@@](C)(O)C3)nc(C(C)C)n2n1 [Final Cpd 73] | > 10 | 0.11
40 | CC(C)c1nn(CC(=O)Nc2ccc3nnc(C(F)(F)F)n3n2)c(=O)c2cc(C3CC3)nn12 [Final Cpd 168] | > 10 | 0.84
41 | Cc1ccncc1NC(=O)Cn1nc(C(C)C)n2nc(C3CC3)cc2c1=O [Final Cpd 138] | > 10 | > 10
42 | COc1cncc(NC(=O)Cn2nc(C(C)C)n3nc(C4CC4)cc3c2=O)c1 [Final Cpd 121] | > 10 | 3.06
43 | CCc1nn(CC(=O)Nc2ccncn2)c(=O)c2cc(C3CC3)nn12 [Final Cpd 10, 2-(2-cyclopropyl-7-ethyl-4-oxo-pyrazolo[1,5-d][1,2,4]triazin-5-yl)-N-pyrimidin-4-yl-acetamide] | > 10 | 0.64
44 | CC(C)c1nn(CC(=O)NC2CCC(=O)N(C)C2)c(=O)c2cc(C3CC3)nn12 (stereo not shown) [Final Cpd 29] | > 10 | 1.79
45 | CC(C)c1nn(CC(=O)Nc2ccc3nnc(Cl)n3n2)c(=O)c2cc(C3CC3)nn12 [Final Cpd 170] | > 10 | 0.55
46 | CC(C)c1nn(CC(=O)Nc2ccc3c(C#N)ncn3c2)c(=O)c2cc(C3CC3)nn12 [Final Cpd 108] | > 10 | 0.54
47 | CC(C)c1nn(CC(=O)Nc2ccnc(N(C)C)c2)c(=O)c2cc(C3CC3)nn12 [Final Cpd 123] | > 10 | 1.04
48 | CC(C)c1nn(CC(=O)Nc2ccc(C3CC3)nn2)c(=O)c2cc(C3CC3)nn12 [Final Cpd 86] | > 10 | > 10
49 | Cc1nn(CC(=O)Nc2ccncn2)c(=O)c2cc(C3CC3)nn12 [Final Cpd 48] | > 10 | 0.89
50 | CC(C)c1nn(CC(=O)Nc2ccc3ncoc3c2)c(=O)c2cc(C3CC3)nn12 [Final Cpd 100] | > 10 | 0.31
